Residues, ends and D or L forms follow the SMILES beside them. *: point of attachment. Cbz = O=C(OCc1ccccc1)*

The test system of test [1] is nuclear p65 activation. The test is described as follows: TransAM NF-κB ELISA of nuclear p65 activation in mdx costal diaphragm. The format is in vivo, mdx mice. Here is the method: Cytosolic and nuclear fractions were obtained from isolated costal diaphragm using techniques that were slightly modified from Kumar and Boriek (2003). The muscles were removed from vehicle and drug-treated euthanized mdx mice at the end of the treatment period, and were flash-frozen and stored at −80° C. for a period of 1 to 4 weeks. The muscles were then thawed and weighed before being homogenized on ice using a mortar and pestle in low salt lysis (LSL) buffer (1 mg muscle wet weight/18 μl solution; in mM: 10 HEPES, 10 KCl, 1.5 MgCl2, 0.1 EDTA, 0.1 EGTA, 1 dithiothreitol (DTT), 0.5 phenylmethylsulfonylfluoride (PMSF); 0.5 mg/ml benzamidine, 4.0 μl/ml protease inhibitor cocktail Sigma #8340 (PIC) to produce the following final concentrations—2.1 μg/ml leupeptin, 3.85 μg/ml aprotinin, 0.416 mM AEBSF (Sigma A8456), 16 μM bestatin, 6 μM pepstatin A, 5.6 μM E64; pH 7.9). To lyse the cells, the ground tissue was then subjected to 2 freeze-thaw cycles (5 min freeze on dry ice followed by thawing at room temperature), and was subsequently vortexed and centrifuged (13,000 rpm, 15 s). The supernatant cytosolic extract was immediately frozen (−80° C.) for subsequent analyses as needed, while the nuclear pellet was washed in 50 μl LSL (2 times) before being re-suspended on ice in a high salt nuclear extraction buffer (in mM: 20 HEPES, 420 NaCl, 1 EDTA, 1 EGTA, 1 DTT, 0.5 PMSF; 25% glycerol, 0.5 mg/ml benzamidine, 4.0 μl/ml PIC; pH 7.9) at a ratio of 4 μl of solution per mg muscle wet weight. Preparations were incubated on ice for 30 min and vortexed for 10 s every 5 min before being centrifuged (13,000 rpm, 6 min) at 4° C. The supernatant nuclear extract was then removed and frozen (−80° C.) for subsequent analyses. Potential contamination of nuclear extracts with cytoplasmic proteins was less than 5%. Protein determinations for each fraction were obtained using the Bradford assay.
The Trans-Am assay (Active Motif; Carlsbad, Calif.) was used to determine nuclear NF-κB activation in nuclear fractions which were applied to the 96 well ELISA plates at 2-20 μg protein. The p65 primary antibody (catalogue number 40096) was used to detect p65 bound to oligonucleotide in vehicle and drug-treated preparations in accordance with kit instructions. A nuclear extract from Jurkat cells was routinely run as a positive control in association with each set of control and experimental samples.
Horizontal dashed lines indicate average levels observed in nondystrophic, vehicle, and UDCA treated preparations as indicated. In each case, percent recovery is determined by dividing the mean improvement observed in the UDCA treated preparation (UDCA-vehicle) from the deficit observed in the vehicle-treated preparation (nondystrophic-vehicle mdx). Mdx mice were treated for 30 days beginning at 1 month of age. Horizontal dashed lines in (A) and (B) representing nondystrophic values were obtained from a cohort of nondystrophic mice at 2 months of age. […] The results were obtained from two separate groups of vehicle and UDCA treated preparations that were assayed using two different 96 well plates. For each plate, the absorbance for each sample was normalized to the average absorbance determined for the vehicle-treated preparations on that plate. […] Millman et al., 2007. N is the number of mice and preparations in each condition. Shown are the means and standard errors. […] indicate p<0.05 and p<0.01, respectively, between vehicle and UDCA treated preparations. […]

The subject of test [2] is mdx mice. The experiment in a line: Noninvasive whole body tension (WBT) measurement of forward pulling tensions. The format is in vivo. The source says:
FIG. 18 presents individual “forward pulling tensions” (FPTs; upward deflections) recorded from a PDTC-treated mouse (Series 2) using the whole body tension (WBT) technique (Carlson and Makiejus, 1990). The rank order of FPTs from highest to lowest is indicated by the numbers in the figure. […] In the Series 2 experiments, WBT measurements were obtained from each of the saline-injected and PDTC-injected mice on days 0, 9, 21 and 40 of the experiment.
As a first step in examining the potential effects of PDTC treatment on WBT tension development, the slope of the decline in FPTs was evaluated for each recording session for each mouse examined in the Series 2 experiments (FIG. 19A, 19B). This measure essentially provides a “fatigue index” (FI) since the slope of the decline in FPTs is a direct measure of the average magnitude of the decline in FPT per individual pull for rank-ordered pulls number 2 through 10. If 10 individual pulls obtained during the recording session have identical magnitudes representing the highest FPT, then the FI equals 0. In contrast, a 50% reduction in FPT per pull would produce an FI equal to −0.5.
To examine the potential effect of PDTC treatment on FI in age matched adult mdx mice, a pre-treatment FU was obtained during a typical recording session from each of 10 mdx mice used in the Series 2 investigations (age 9.5 to 16 months at beginning of study). Five of the mice were subsequently treated with daily injections of vehicle (HEPES buffered Ringer's solution) and 5 of the mice were treated with daily injections of 50 mg/kg PDTC. Recordings for each of the mice were subsequently obtained on days 9, 21, and 40 of the treatment period (e.g., FIG. 19). To determine the potential effects of treatment on FI, the FIs obtained on days 9, 21, and 40 (e.g., FIG. 19) were each normalized to the pre-treatment FI for each of the 10 mice used in the study. […] A decrease in the FI indicating a reduction in the average loss of tension per pull during the course of the study would produce normalized FIs less than one, no change in FI would be associated with normalized FIs equal to 1.0, and increases in FI would produce normalized FIs greater than 1.0.
Mdx (C57 Bl10-mdx) and nondystrophic (C57Bl10-SnJ) mice were obtained from Jackson laboratories and bred under conditions approved by the Institutional Animal Care and Use Committee (IACUC). All studies were performed in accordance with the guidelines provided by the IACUC. Male and female PDTC treated mdx mice received daily intraperitoneal (ip) injections of 50 mg/kg pyrollidine dithiocarbamate (PDTC; Sigma P8765) dissolved in sterile-filtered (0.2 μm) HEPES-buffered Ringers solution (147.5 mM NaCl, 5 mM KCl, 2 mM CaCl2, 11 mM glucose, 5 mM Hepes, pH 7.35). Age- and gender-matched groups of vehicle-treated mice received corresponding injections of HEPES Ringers. See Carlson et al., 2005. The PDTC experiments were conducted on two series of mature adult mdx mice (9.5-16 month; 19-20 months) and on a series of young adult (1 month) mice. In each case, the mice in the experimental and vehicle-treated groups were matched according to age and gender with an equal number of males and females in each group. WBT tension measurements were obtained prior to initiating treatment and on multiple occasions following at least 3 weeks (20 days) of treatment.
A group of 30 day-old mdx mice were exposed to daily ip injections (30 day) of 40 mg/kg UDCA (Sigma #5127; 2 mg/ml; N=12 experimental) in an isotonic saline vehicle (1.02% NaCl, pH 8.4,) or a synthetic taurine derivative of UDCA (tauroursodeoxycholic acid, TUDCA, SpA Laboratorio Farmacologico, Cenate Sotto, Italy; 6 mg/ml; N=4 experimental) administered in a saline vehicle (NaCl 6 g/l, KCl 0.3 g/l, CaCl2 0.2 g/l, Na acetate 4 g/l, 300 mosM/l, pH 6.1).
WBT measurements were obtained as indicated in Examples 5 through 7 by placing an approximately 0.5 inch square piece of adhesive tape around the tail about 1 inch from the tip. […]

The subject of test [3] is IκB-α and phospho-IκB-α. The test is described as follows: Western blot of phospho-IκB-α and IκB-α in costal diaphragm after proteasomal inhibition with MG132. The format is in vivo, nondystrophic and mdx mice. Here is the method:
The influence of the proteasomal inhibitor MG132 on the cytosolic expression of IκB-α and Pi-IκB-α was determined by administering 5 month nondystrophic and mdx mice MG132 (1 mg/kg, intraperitoneal) or vehicle (DMSO) in vivo 2 h prior to euthanization and isolation of the diaphragm. The individual intact costal diaphragms from the MG132 group were then exposed to MG132 ([…] in HEPES Ringer) in vitro for another 2 h while the costal diaphragms from the vehicle group were exposed to HEPES Ringer and vehicle. This procedure of combining in vivo and in vitro exposure to MG was used to maximize inhibition of proteasomal degradation and facilitate the cytosolic accumulation of Pi-IκB-α and IκB-α in the MG132 treated preparations. […]
Cytosolic and nuclear extracts were obtained by homogenizing individual muscles at a concentration of 1 mg wet weight per 18 μl of low salt lysis buffer (LSLB: 10 mM HEPES, 10 mM KCl, 1.5 mM MgCl2, 0.1 mM EDTA, 0.1 mM EGTA, 1 mM dithiothreitol, 1.0 mg/ml benzamidine, 0.5 mM phenylmethylsulfonyl fluoride, 4.0 μl/ml protease inhibitor cocktail Sigma #8340, 10 μl/ml phosphatase inhibitor Sigma #P2850, pH 7.9. See Kumar et al. (2003); Carlson et al. (2005)). […] Pellets were subsequently washed twice (50 μl of LSLB) and resuspended in ice-cold high-salt lysis buffer (HSLB: 20 mM HEPES (pH 7.9), 420 mM NaCl, 1 mM EDTA, 1 mM EGTA, 25% glycerol, 1 mM dithiothreitol, 0.5 mM phenylmethylsulfonyl fluoride, 1.0 mg/ml benzamidine, 4 μl/ml protease inhibitor cocktail, 10 μl/ml phosphate inhibitor; 4 μl/mg wet […] and centrifuged (13,000 rpm, 6 min, 4° C.). The supernatant (nuclear extract) was stored at −80° C. Protein concentration was determined using the Bradford assay (Bio-Rad 500-0006) in a standard 96 well plate.
Muscle proteins and immunoprecipitates (20 μg) were separated by SDS-PAGE under reducing conditions and transferred to PVDF membranes (Bio-Rad). […] Equal loading of proteins for cytosolic and whole cell extracts was evaluated by developing a blot for GAPDH. […]

[4] abbreviates: UDCA 30 days from 1 month of age.
[5] abbreviates: UDCA 30 days, (UDCA-vehicle)/(nondystrophic-vehicle mdx).

Regarding `C[C@H](CCC(=O)O)[C@H]1CC[C@H]2[C@@H]3[C@@H](O)C[C@@H]4C[C@H](O)CC[C@]4(C)[C@H]3CC[C@]12C` [UDCA, ursodeoxycholic acid], the “recovery towards values in mature nondystrophic preparations” value in test [1] (30 day UDCA treatment) is 42%. For the same compound, the “reduction in nuclear p65 activation” value in test [1] (30 day UDCA treatment, p<0.05) is listed as 34%. In addition, the “mean absorbance relative to vehicle-treated preparations” value in test [1] (setting [4]) is listed as “approximately 66%”. In addition, in test [2] (setting [4]), the “increase in WBT5 above vehicle-treated” value is given as “about 21%” and the “increase in WBT10 above vehicle-treated” value is reported as “about 21%”. Also, in test [2] (setting [5]), the “recovery of the dystrophic deficit in WBT5” value is on record as 27% and the “recovery of the dystrophic deficit in WBT10” value came to 24%.
As for `CC(C)C[C@@H](C=O)NC(=O)[C@H](CC(C)C)NC(=O)[C@H](CC(C)C)NC(=O)OCc1ccccc1` [MG132, Z-leu-leu-leu-al] (Cbz-Leu-Leu-Leu-aldehyde), the “increase in proportion of phosphorylated IκB-α” value in test [3] (mdx diaphragm cytosolic extracts, not significant) is 1.3 fold. The “expression of cytosolic IκB-α” value in test [3] (nondystrophic and mdx preparations) is on record as “not significantly increased”. For the same compound, the “proportion of phosphorylated IκB-α” value in test [3] (nondystrophic diaphragm, cytosol and whole cell extracts, MG132 1 mg/kg ip 2 h then 50 mM in vitro 2 h, p<0.05) is “doubling”.
`C[C@H](CCC(=O)NCCS(=O)(=O)O)[C@H]1CC[C@H]2[C@@H]3[C@@H](O)C[C@@H]4C[C@H](O)CC[C@]4(C)[C@H]3CC[C@]12C` [TUDCA, tauroursodeoxycholic acid]: the “effectiveness compared with UDCA” value in test [2] (daily ip 30 days in 30 day-old mdx mice, TUDCA 6 mg/ml, N=4) is given as “No differences”.
